Columns and labels:
Nucleic Acid = conditions: Homo sapiens
Description: Binding affinity to human G-quadruplex DNA assessed as change in melting temperature by FRET-melting assay

SK-OV-3 = assay: cells; conditions: Homo sapiens
Description: Anticancer activity against human SKOV3 cells

OVCAR-8 = assay: cells; conditions: Homo sapiens
Description: Anticancer activity against human OVCAR8 cells

OVCAR-5 = assay: cells; conditions: Homo sapiens
Description: Anticancer activity against human OVCAR5 cells

UACC-257 = assay: cells; conditions: Homo sapiens
Description: Anticancer activity against human UACC257 cells

M14 = assay: cells; conditions: Homo sapiens
Description: Anticancer activity against human M14 cells

Malme-3M = assay: cells; conditions: Homo sapiens
Description: Anticancer activity against human MALME-3M cells

SNB-19 = assay: cells; conditions: Homo sapiens
Description: Anticancer activity against human SNB19 cells

SF-539 = assay: cells; conditions: Homo sapiens
Description: Anticancer activity against human SF539 cells

SF-295 = assay: cells; conditions: Homo sapiens
Description: Anticancer activity against human SF295 cells

SF-268 = assay: cells; conditions: Homo sapiens
Description: Anticancer activity against human SF268 cells

KM12 = assay: cells; conditions: Homo sapiens
Description: Anticancer activity against human KM12 cells

HCT-15 = assay: cells; conditions: Homo sapiens
Description: Anticancer activity against human HCT15 cells

NCI-H322M = assay: cells; conditions: Homo sapiens
Description: Anticancer activity against human NCI-H322M cells

NCI-H23 = assay: cells; conditions: Homo sapiens
Description: Anticancer activity against human NCI-H23 cells

NCI-H226 = assay: cells; conditions: Homo sapiens
Description: Anticancer activity against human NCI-H226 cells

HOP-92 = assay: cells; conditions: Homo sapiens
Description: Anticancer activity against human HOP92 cells

EKVX = assay: cells; conditions: Homo sapiens
Description: Anticancer activity against human EKVX cells

A549 = assay: cells; conditions: Homo sapiens
Description: Anticancer activity against human A549 cells

SR = assay: cells; conditions: Homo sapiens
Description: Anticancer activity against human SR cells

cells [1] = conditions: Homo sapiens
Description: Anticancer activity against human RPMI8266 cells

Vero = assay: cells; conditions: Chlorocebus sabaeus, 48 h
Description: Cytotoxicity against african green monkey Vero cells after 48 hrs by MTT assay

T47D = assay: cells; conditions: Homo sapiens
Description: Anticancer activity against human T47D cells

MDA-MB-468 = assay: cells; conditions: Homo sapiens
Description: Anticancer activity against human MDA-MB-468 cells

MDA-MB-435 = assay: cells; conditions: Homo sapiens
Description: Anticancer activity against human MDA-MB-435 cells

cells [2] = conditions: Homo sapiens, Hs-578T
Description: Anticancer activity against human Hs 578T cells

NCI/ADR-RES = assay: cells; conditions: Homo sapiens
Description: Anticancer activity against human NCI/ADR-RES cells

PC-3 = assay: cells; conditions: Homo sapiens
Description: Anticancer activity against human PC3 cells

UO-31 = assay: cells; conditions: Homo sapiens
Description: Anticancer activity against human UO31 cells

TK-10 = assay: cells; conditions: Homo sapiens
Description: Anticancer activity against human TK10 cells

RXF 393 = assay: cells; conditions: Homo sapiens
Description: Anticancer activity against human RXF393 cells

CAKI-1 = assay: cells; conditions: Homo sapiens
Description: Anticancer activity against human Caki1 cells

ACHN = assay: cells; conditions: Homo sapiens
Description: Anticancer activity against human ACHN cells

in vivo = conditions: mouse, cancer cell lines
Description: Toxicity in cancer cells containing hollow fiber implanted mouse

With `C[n+]1c2ccccc2c(NC2CCNCC2)c2[nH]c3ccccc3c21.[Cl-]` the ΔTm (Nucleic Acid) was 19.9 °C, the GI50 (SK-OV-3; SK-OV-3, read-out: pGI50 (converted)) was 0.447 µM and the CC50 (SK-OV-3; SK-OV-3, read-out: pLC50 (converted)) was 77.6 µM. The TGI (SK-OV-3; SK-OV-3, read-out: pTGI) was 3.89 µM, the GI50 (OVCAR-8; OVCAR-8, read-out: pGI50 (converted)) was 1.74 µM and the CC50 (OVCAR-8; OVCAR-8, read-out: pLC50 (converted)) was 45.7 µM. It also gave a TGI (OVCAR-8; OVCAR-8, read-out: pTGI) of 12.3 µM, a GI50 (OVCAR-5; OVCAR-5, read-out: pGI50 (converted)) of 1.66 µM and a CC50 (OVCAR-5; OVCAR-5, read-out: pLC50 (converted)) greater than 100 µM. The TGI (OVCAR-5; OVCAR-5, read-out: pTGI) was 17 µM, the GI50 (UACC-257; UACC-257, read-out: pGI50 (converted)) was 5.37 µM and the CC50 (UACC-257; UACC-257, read-out: pLC50 (converted)) was 81.3 µM. For the same compound, the TGI (UACC-257; UACC-257, read-out: pTGI) was 24 µM, the GI50 (M14; M14, read-out: pGI50 (converted)) was 3.16 µM and the CC50 (M14; M14, read-out: pLC50 (converted)) was 43.7 µM. The TGI (M14; M14, read-out: pTGI) was 15.1 µM, the GI50 (Malme-3M; read-out: pGI50 (converted)) was 1.55 µM and the CC50 (Malme-3M; read-out: pLC50 (converted)) was 20 µM. It also gave a TGI (Malme-3M; read-out: pTGI) of 4.37 µM, a GI50 (SNB-19; SNB-19, read-out: pGI50 (converted)) of 0.275 µM and a CC50 (SNB-19; SNB-19, read-out: pLC50 (converted)) greater than 100 µM. The TGI (SNB-19; SNB-19, read-out: pTGI) was 2.57 µM, the GI50 (SF-539; SF-539, read-out: pGI50 (converted)) was 1.66 µM and the CC50 (SF-539; SF-539, read-out: pLC50 (converted)) was 28.8 µM. It also gave a TGI (SF-539; SF-539, read-out: pTGI) of 7.41 µM, a GI50 (SF-295; SF-295, read-out: pGI50 (converted)) of 0.741 µM and a CC50 (SF-295; SF-295, read-out: pLC50 (converted)) of 77.6 µM. For the same compound, the TGI (SF-295; SF-295, read-out: pTGI) was 10.2 µM, the GI50 (SF-268; SF-268, read-out: pGI50 (converted)) was 0.0457 µM and the CC50 (SF-268; SF-268, read-out: pLC50 (converted)) was 42.7 µM. It also gave a TGI (SF-268; SF-268, read-out: pTGI) of 1.38 µM, a GI50 (KM12; KM12, read-out: pGI50 (converted)) of 0.708 µM and a CC50 (KM12; KM12, read-out: pLC50 (converted)) greater than 100 µM. For the same compound, the TGI (KM12; KM12, read-out: pTGI) was 10 µM, the GI50 (HCT-15; HCT-15, read-out: pGI50 (converted)) was 23.4 µM and the CC50 (HCT-15; HCT-15, read-out: pLC50 (converted)) was greater than 100 µM. The TGI (HCT-15; HCT-15, read-out: pTGI) was greater than 100 µM, the GI50 (NCI-H322M; read-out: pGI50 (converted)) was 0.372 µM and the CC50 (NCI-H322M; read-out: pLC50 (converted)) was greater than 100 µM. It also gave a TGI (NCI-H322M; read-out: pTGI) of 12 µM, a GI50 (NCI-H23; NCI-H23, read-out: pGI50 (converted)) of 0.0589 µM and a CC50 (NCI-H23; NCI-H23, read-out: pLC50 (converted)) of 10.2 µM. For the same compound, the TGI (NCI-H23; NCI-H23, read-out: pTGI) was 0.646 µM, the GI50 (NCI-H226; NCI-H226, read-out: pGI50 (converted)) was 0.537 µM and the CC50 (NCI-H226; NCI-H226, read-out: pLC50 (converted)) was 28.8 µM. For the same compound, the TGI (NCI-H226; NCI-H226, read-out: pTGI) was 3.24 µM, the GI50 (HOP-92; HOP-92, read-out: pGI50 (converted)) was 1.15 µM and the CC50 (HOP-92; HOP-92, read-out: pLC50 (converted)) was greater than 100 µM. The TGI (HOP-92; HOP-92, read-out: pTGI) was 6.92 µM, the GI50 (EKVX; read-out: pGI50 (converted)) was 0.525 µM and the CC50 (EKVX; read-out: pLC50 (converted)) was greater than 100 µM. For the same compound, the TGI (EKVX; read-out: pTGI) was 8.32 µM, the GI50 (A549; A549, read-out: pGI50 (converted)) was 0.0776 µM and the CC50 (A549; A549, read-out: pLC50 (converted)) was greater than 100 µM. For the same compound, the TGI (A549; A549, read-out: pTGI) was 13.8 µM, the GI50 (SR; read-out: pGI50 (converted)) was 1.7 µM and the CC50 (SR; read-out: pLC50 (converted)) was greater than 100 µM. The TGI (SR; read-out: pTGI) was greater than 100 µM, the GI50 (cells [1]; RPMI8266, read-out: pGI50 (converted)) was 0.661 µM and the CC50 (cells [1]; RPMI8266, read-out: pLC50 (converted)) was greater than 100 µM. It also gave a TGI (cells [1]; RPMI8266, read-out: pTGI) of 3.89 µM, an IC50 (Vero) of 10 µM and a GI50 (T47D; read-out: pGI50 (converted)) of 0.234 µM. It also gave a CC50 (T47D; read-out: pLC50 (converted)) greater than 100 µM, a TGI (T47D; read-out: pTGI) of 2.34 µM and a GI50 (MDA-MB-468; MDA-MB-468, read-out: pGI50 (converted)) of 0.234 µM. The CC50 (MDA-MB-468; MDA-MB-468, read-out: pLC50 (converted)) was 6.92 µM, the TGI (MDA-MB-468; MDA-MB-468, read-out: pTGI) was 1.58 µM and the GI50 (MDA-MB-435; MDA-MB-435, read-out: pGI50 (converted)) was 2.95 µM. For the same compound, the CC50 (MDA-MB-435; MDA-MB-435, read-out: pLC50 (converted)) was 42.7 µM, the TGI (MDA-MB-435; MDA-MB-435, read-out: pTGI) was 10.5 µM and the GI50 (cells [2]; read-out: pGI50 (converted)) was 0.12 µM. For the same compound, the CC50 (cells [2]; read-out: pLC50 (converted)) was 44.7 µM, the TGI (cells [2]; read-out: pTGI) was 1.12 µM and the GI50 (NCI/ADR-RES; read-out: pGI50 (converted)) was greater than 100 µM. The CC50 (NCI/ADR-RES; read-out: pLC50 (converted)) was greater than 100 µM, the TGI (NCI/ADR-RES; read-out: pTGI) was greater than 100 µM and the GI50 (PC-3; PC-3, read-out: pGI50 (converted)) was 1.95 µM. It also gave a CC50 (PC-3; PC-3, read-out: pLC50 (converted)) of 97.7 µM, a TGI (PC-3; PC-3, read-out: pTGI) of 10.5 µM and a GI50 (UO-31; UO-31, read-out: pGI50 (converted)) of 13.2 µM. It also gave a CC50 (UO-31; UO-31, read-out: pLC50 (converted)) greater than 100 µM, a TGI (UO-31; UO-31, read-out: pTGI) of 46.8 µM and a GI50 (TK-10; TK-10, read-out: pGI50 (converted)) of 3.09 µM. It also gave a CC50 (TK-10; TK-10, read-out: pLC50 (converted)) greater than 100 µM, a TGI (TK-10; TK-10, read-out: pTGI) of 14.5 µM and a GI50 (RXF 393; RXF 393, read-out: pGI50 (converted)) of 1.62 µM. The CC50 (RXF 393; RXF 393, read-out: pLC50 (converted)) was 26.3 µM, the TGI (RXF 393; RXF 393, read-out: pTGI) was 4.9 µM and the GI50 (CAKI-1; CAKI-1, read-out: pGI50 (converted)) was 15.1 µM. It also gave a CC50 (CAKI-1; CAKI-1, read-out: pLC50 (converted)) greater than 100 µM, a TGI (CAKI-1; CAKI-1, read-out: pTGI) of 60.3 µM and a GI50 (ACHN; read-out: pGI50 (converted)) of 11.5 µM. It also gave a CC50 (ACHN; read-out: pLC50 (converted)) greater than 100 µM, a TGI (ACHN; read-out: pTGI) of 64.6 µM and an MTD (in vivo) of 25 mg/kg.

Source: ChEMBL document CHEMBL1287680, “C-11 diamino cryptolepine derivatives NSC748392, NSC748393, and NSC748394: anticancer profile and G-quadruplex stabilization” (Bioorg Med Chem Lett, 2010)
